Experiments:
Assay type in all cases: in vivo
Amaranthus viridis [1] = assay: Test Example 3: herbicidal effect test by treatment of dry field farming soil (one day after seeding); details: 120 g/10a active ingredient, evaluated 14 days after treatment
Outline: (§1)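 Compound emulsions are sprayed on the soil surface one day after sowing (120 g a.i. per 10 ares) before weeds emerge. Effect is expressed as percent dry-weight reduction versus untreated controls 14 days post-treatment.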

Echinochloa crus-galli [2] = assay: as above; details: 120 g/10a active ingredient, evaluated 14 days after treatment
Outline: as §1

southern crabgrass [3] = assay: as above; details: 120 g/10a active ingredient, evaluated 14 days after treatment
Outline: as §1

Chenopodium album [4] = assay: as above; details: 120 g/10a active ingredient, evaluated 14 days after treatment
Outline: as §1

Scirpus juncoides [5] = assay: Test Example 2: herbicidal effect test by treatment during growing period in paddy rice cultivation (seven days after seeding); details: 120 g/10a active ingredient, assessed 14 days after treatment, dry weight vs untreated area
Outline: (§2)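 Greenhouse flooded-pot test, seeds sown in puddled paddy soil; emulsion applied into water 7 d after seeding, 120 g a.i./10 a. Dry-weight-based herbicidal rate at 14 d, n=2.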

[6] = system: broad leaf weeds (Lindernia pyxidaria and Monochoria vaginalis); assay: as above; details: 120 g/10a active ingredient, assessed 14 days after treatment, dry weight vs untreated area; for pest or weed control at 1200 g/ha: 336 h
Outline: as §2

Echinochloa crus-galli [7] = assay: as above; details: 120 g/10a active ingredient, assessed 14 days after treatment, dry weight vs untreated area
Outline: as §2

Scirpus juncoides [8] = assay: Test Example 1: herbicidal effect test by treatment of rice paddy soil (immediately after seeding); details: 120 g/10a active ingredient, dry weight vs untreated area, 14 days after treatment
Outline: (§3)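 Values are herbicidal rates (%) derived from average plant dry weight in treated versus untreated pots 14 days after treatment, run in duplicate. Treatment was a water-diluted emulsion dropped into flooded paddy soil right after sowing, at 120 g active ingredient per 10 ares.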

[9] = system: broad leaf weeds (Lindernia pyxidaria and Monochoria vaginalis); assay: as above; details: 120 g/10a active ingredient, dry weight vs untreated area, 14 days after treatment; for pest or weed control at 1200 g/ha: 336 h
Outline: as §3

Echinochloa crus-galli [10] = assay: as above; details: 120 g/10a active ingredient, dry weight vs untreated area, 14 days after treatment
Outline: as §3

Amaranthus viridis [11] = assay: Test Example 4: herbicidal effect test by treatment of leave and stem in dry field farming (seven days after seeding); details: 120 g/10a active ingredient, emulsion sprayed seven days after seeding, evaluated 14 days after treatment
Outline: (§4)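 Twenty seeds per species were mixed into the top 1 cm of alluvial soil in 36 cm^2 pots; emulsions were sprayed seven days after seeding at 100 L per 10 ares (120 g active ingredient per 10 ares). Herbicidal rate (%) = {1 − treated/untreated mean dry weight} × 100, 14 days after treatment, duplicate.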

Echinochloa crus-galli [12] = assay: as above; details: 120 g/10a active ingredient, emulsion sprayed seven days after seeding, evaluated 14 days after treatment
Outline: as §4

southern crabgrass [13] = assay: as above; details: 120 g/10a active ingredient, emulsion sprayed seven days after seeding, evaluated 14 days after treatment
Outline: as §4

Chenopodium album [14] = assay: as above; details: 120 g/10a active ingredient, emulsion sprayed seven days after seeding, evaluated 14 days after treatment
Outline: as §4

| Structure (SMILES) | herbicidal rate, Amaranthus viridis (Amaranthus viridis [1]) [%] | herbicidal rate, Echinochloa crus-galli (Echinochloa crus-galli [2]) [%] | herbicidal rate, southern crabgrass (southern crabgrass [3]) [%] | herbicidal rate, Chenopodium album (Chenopodium album [4]) [%] | Herbicidal rate (%) Scirpus juncoides (Scirpus juncoides [5]) [%] | Herbicidal rate (%) Lindernia pyxidaria ([6]; Lindernia pyxidaria) [%] | Herbicidal rate (%) Monochoria vaginalis ([6]; Monochoria vaginalis) [%] | Herbicidal rate (%) Echinochloa crus-galli (Echinochloa crus-galli [7]) [%] | Herbicidal rate (%) Scirpus juncoides (Scirpus juncoides [8]) [%] | Herbicidal rate (%) Lindernia pyxidaria ([9]; Lindernia pyxidaria) [%] | Herbicidal rate (%) Monochoria vaginalis ([9]; Monochoria vaginalis) [%] | Herbicidal rate (%) Echinochloa crus-galli (Echinochloa crus-galli [10]) [%] | herbicidal effect (herbicidal rate), Amaranthus viridis (Amaranthus viridis [11]) [%] | herbicidal effect (herbicidal rate), Echinochloa crus-galli (Echinochloa crus-galli [12]) [%] | herbicidal effect (herbicidal rate), southern crabgrass (southern crabgrass [13]) [%] | herbicidal effect (herbicidal rate), Chenopodium album (Chenopodium album [14]) [%] | other results |
| --- | --- | --- | --- | --- | --- | --- | --- | --- | --- | --- | --- | --- | --- | --- | --- | --- | --- |
| Cc1c(Cc2ccccc2N(S(C)(=O)=O)S(=O)(=O)C(F)(F)F)c(=O)on1C(C)(C)C [Compound 1-889] | 90 | 90 | 90 | 90 | 90 | 90 | 90 | 90 | 90 | 90 | 90 | 90 | 40 | 90 | 90 | 40 |  |
| Cc1c(Cc2ccccc2NS(=O)(=O)C(F)(F)F)c(=O)on1CC(C)(C)C [Compound 1-106] | 90 | 90 | 90 | 90 | 90 | 90 | 90 | 90 | 90 | 90 | 90 | 90 | 40 | 90 | 90 | 40 |  |
| CCOC(=O)N(c1ccccc1Cc1c(C)n(CC(C)(C)C)oc1=O)S(=O)(=O)C(F)(F)F [Compound 1-609] | 90 | 90 | 90 | 90 | 90 | 90 | 90 | 90 | 90 | 90 | 90 | 90 | 40 | 90 | 90 | 40 |  |
| Cc1c(Cc2ccccc2NS(=O)(=O)C(F)(F)F)c(=O)on1CC(C)C [Compound 1-105, 1,1,1-trifluoro-N-[2-[(2-isobutyl-3-methyl-5-oxoisoxazol-4-yl)methyl]phenyl]methanesulfonamide] |  |  |  |  |  |  |  |  |  |  |  |  |  |  |  |  | pest or weed control at 1200 g/ha (Amaranthus viridis [1]; Amaranthus viridis, 336 h, read-out: herbicidal rate, Amaranthus viridis): 70%; pest or weed control at 1200 g/ha (Echinochloa crus-galli [2]; Echinochloa crus-galli, 336 h, read-out: herbicidal rate, Echinochloa crus-galli): 60%; pest or weed control at 1200 g/ha (southern crabgrass [3]; Digitaria ciliaris, 336 h, read-out: herbicidal rate, southern crabgrass): 90%; pest or weed control at 1200 g/ha (Chenopodium album [4]; Chenopodium album, 336 h, read-out: herbicidal rate, Chenopodium album): 50%; pest or weed control at 1200 g/ha (Scirpus juncoides [5]; Schoenoplectiella juncoides, 336 h, read-out: herbicidal rate (%) Scirpus juncoides): 90%; pest or weed control at 1200 g/ha ([6]; Lindernia pyxidaria, read-out: herbicidal rate (%) Lindernia pyxidaria): 90%; pest or weed control at 1200 g/ha ([6]; Monochoria vaginalis, read-out: herbicidal rate (%) Monochoria vaginalis): 90%; pest or weed control at 1200 g/ha (Echinochloa crus-galli [7]; Echinochloa crus-galli, 336 h, read-out: herbicidal rate (%) Echinochloa crus-galli): 90%; pest or weed control at 1200 g/ha (Scirpus juncoides [8]; in Schoenoplectiella juncoides, 336 h, read-out: Herbicidal rate (%) Scirpus juncoides): 90%; pest or weed control at 1200 g/ha ([9]; Monochoria vaginalis, read-out: Herbicidal rate (%) Monochoria vaginalis): 100%; pest or weed control at 1200 g/ha ([9]; in Lindernia, Lindernia pyxidaria, read-out: Herbicidal rate (%) Lindernia pyxidaria): 100%; pest or weed control at 1200 g/ha (Echinochloa crus-galli [10]; in Echinochloa crus-galli, 336 h, read-out: Herbicidal rate (%) Echinochloa crus-galli): 90%; pest or weed control at 1200 g/ha (Amaranthus viridis [11]; Amaranthus viridis, 336 h, read-out: herbicidal effect (herbicidal rate), Amaranthus viridis): 50%; pest or weed control at 1200 g/ha (Echinochloa crus-galli [12]; Echinochloa crus-galli, 336 h, read-out: herbicidal effect (herbicidal rate), Echinochloa crus-galli): 90%; pest or weed control at 1200 g/ha (southern crabgrass [13]; Digitaria ciliaris, 336 h, read-out: herbicidal effect (herbicidal rate), southern crabgrass): 50%; pest or weed control at 1200 g/ha (Chenopodium album [14]; Chenopodium album, 336 h, read-out: herbicidal effect (herbicidal rate), Chenopodium album): 40% |
| CCC(C)n1oc(=O)c(Cc2ccccc2N(C(=O)c2ccc(C)cc2)S(=O)(=O)C(F)(F)F)c1C (centres unmarked) [Compound 1-494] | 90 | 90 | 90 | 90 | 90 | 90 | 90 | 90 | 90 | 90 | 90 | 90 | 40 | 90 | 90 | 40 |  |
| Cc1c(Cc2ccccc2NS(=O)(=O)C(F)(F)F)c(=O)on1C(C)Cc1ccccc1 (centres unmarked) [Compound 1-218] | 40 | 80 | 40 | 40 | 90 | 40 | 80 | 90 | 90 | 90 | 90 | 100 | 60 | 90 | 40 | 40 |  |
| COCCOC(=O)N(c1ccccc1Cc1c(C)n(CCSC)oc1=O)S(=O)(=O)C(F)(F)F [Compound 1-735] | 90 | 90 | 90 | 90 | 90 | 90 | 90 | 90 | 90 | 90 | 90 | 90 | 40 | 90 | 90 | 40 |  |
| CCN(CC)C(=O)N(c1ccccc1Cc1c(C)n(C(C)c2ccccc2)oc1=O)S(=O)(=O)C(F)(F)F (centres unmarked) [Compound 1-886] | 90 | 90 | 90 | 90 | 90 | 90 | 90 | 90 | 90 | 90 | 90 | 90 | 40 | 90 | 90 | 40 |  |
